# Source: patent US20140357512A1, “HISTONE DEACETYLASE (HDAC) BIOMARKERS IN MULTIPLE MYELOMA” (priority 2013, published 2014)
# Test system: human myeloma cell line MM.1S
# Assay: SILAC acetylated-lysine peptide profiling, HDAC inhibitor vs DMSO (light/heavy ratio)
# Type: cell-based
# Source text: An embodiment of the invention comprises utilizing the SILAC method in order to quantitate changes in protein expression between two or more populations of cells. The SILAC method is a technique based on mass spectrometry that detects differences in protein abundance among samples using non-radioactive isotopic labeling. The SILAC method is known in the art, and described in detail in Ong et al., “Stable Isotope Labeling by Amino Acids in Cell Culture, SILAC, as a Simple and Accurate Approach to Expression Proteomics”, Molecular & Cellular Proteomics, vol. 1, pp. 376-386 (2002), which is incorporated herein by reference in its entirety.
# Briefly, the SILAC method involves growing two populations of cells in cell culture. The first population of cells is grown in growth media containing normal amino acids (“normal media”). The second population of cells is grown in media lacking a standard essential amino acid (such as lysine), but is then supplemented with a non-radioactive, isotopically labeled form of that essential amino acid (such as lysine labeled with ^13C atoms, rather than normal ^12C atoms), which is called “heavy media”. When the two populations of cells are each growing in the medium, they incorporate the amino acids into all of their proteins. The growth of cells maintained in the heavy media is no different from that in normal media. All peptides containing the heavy amino acids are heavier than their normal counterparts. The cells from each of the two populations of cells are lysed. The lysates from each of the two cell populations are then combined. The combined cell lysates are then analyzed by mass spectrometry. Pairs of chemically identical peptides of different stable isotope composition can be differentiated in a mass spectrometer due to their difference in mass. The ratio of peak intensities in the mass spectrum for such peptide pairs reflects the abundance ratio for the two proteins.
# This example describes SILAC studies that were performed to compare the effects of three different HDAC inhibitors (Compound A, Compound B, and tubastatin A) to a control on a human multiple myeloma cell line. The HDAC inhibitors were also compared amongst themselves to determine differences in their effects.
# A human myeloma cell line MM.1S was grown using either ^12C (light) or ^13C (heavy) lysine containing culture medium. The “heavy” cells were treated with DMSO as the control, and the “light” cells were treated with a single HDAC inhibitor at 37° C. for 6 hours. The heavy and light cells were lysed, and the lysates were mixed in 1:1 ratio and digested with the protease trypsin. The acetylated lysine containing peptides (due to the action of the HDAC inhibitor) in the digested peptide pool were captured by a non-specific anti-acetylated lysine antibody cocktail (the antibodies identify both light and heavy acetylated peptides), and subjected to mass spectrometry analysis in order to identify thousands of individual peptides.
# Thousands of peptides were identified in pairs (^12C and ^13C) due to their known mass differences. The amino acid sequence and quantitative ratio (Light/Heavy) of a given peptide in two differentially treated cell lysates were then determined and annotated with their possible protein (gene) sources.
# As stated above, three HDAC inhibitors (Compound A, Compound B, and Tubastatin A) were used. Thus, the SILAC method was performed three times, with a different HDAC inhibitor compared to a control each time. Accordingly, there are three pairs of quantitative data in the table below, i.e., Compound A:DMSO, Compound B:DMSO, and Tubastatin A:DMSO. A cut-off of 1.30 fold of change (increase or decrease) was then used to determine “changed” or “+” in the table, and any peptides with a fold of change less than 1.3 fold were determined to be “unchanged” or “0” in the table. Those peptides that were not identified were marked as “NA” in the table. […]
compound,measurement,setting,value
"O=C(CCCCCCNC(=O)c1cnc(N(c2ccccc2)c2ccccc2)nc1)NO [Compound A, 2-(diphenylamino)-N-(7-(hydroxyamino)-7-oxoheptyl)pyrimidine-5-carboxamide]",light to heavy ratio (L/H ratio) of acetylated peptide MTDK(ac)CFR (SEQ ID NO: 573),"Mitochondrial import inner membrane translocase subunit Tim13 [45], gene TIMM13, inhibitor:DMSO",0.42 log 2
same,"light to heavy ratio (L/H ratio), log 2 scale, acetylated peptide YVK(ac)ALFR (SEQ ID NO: 771)","Mitochondrial import receptor subunit TOM70 [188], gene TOMM70A, drug:DMSO",0.99
same,light to heavy ratio (L/H ratio) of acetylated peptide (ac)AEPVSPLK(ac)HFVLAK (SEQ ID NO: 508),"Mitochondrial transmembrane GTPase FZO-2 [37], gene MFN1, inhibitor:DMSO",−0.63 log 2
same,light to heavy ratio (L/H ratio) of acetylated peptide LSLLSK(ac)FR (SEQ ID NO: 564),"Mitochondrial trifunctional protein beta subunit (Fragment) [100], gene HADHB, inhibitor:DMSO",0.41 log 2
same,light to heavy ratio (L/H ratio) of acetylated peptide EIFQNEK(ac)R (SEQ ID NO: 288),"NAD(P) transhydrogenase mitochondrial [70], NNT, drug:DMSO",0.64 log 2
same,light to heavy ratio (L/H ratio) of acetylated peptide AISPDK(ac)DNFYFDVK (SEQ ID NO: 284),"NAD(P) transhydrogenase mitochondrial [403], NNT, drug:DMSO",0.61 log 2
same,L/H ratio of acetylated peptide,"NK(ac)WFFQK (SEQ ID NO: 498), 60S ribosomal protein L27 [128], RPL27",−0.86 log 2
same,L/H ratio of acetylated peptide,"NK(ac)YGDAFIR (SEQ ID NO: 496), U6 snRNA-associated Sm-like protein LSm6 [59], LSM6",−0.93 log 2
same,L/H ratio of acetylated peptide ADKDYHFK(ac)[…] (SEQ ID NO: 61),"NPM1 [32], log 2 scale, drug vs DMSO",0.00
same,L/H ratio of acetylated peptide FINYVK(ac)NCFR (SEQ ID NO: 62),"NPM1 [244], log 2 scale, drug vs DMSO",0.00
same,L/H ratio of acetylated peptide GVTQFGNK(ac)[…] (SEQ ID NO: 18),"NUDT21 [23], log 2 scale, drug vs DMSO",1.00
same,light to heavy ratio (L/H ratio) of acetylated peptide FCLSK(ac)PGVYK (SEQ ID NO: 345),"Nodal modulator 1 [630], NOMO3, NOMO1, drug:DMSO",0.00 log 2
same,light to heavy ratio (L/H ratio) of acetylated peptide […](ac)R (SEQ ID NO: 532),"Nucleosome assembly protein 1-like 1 [116], gene NAP1L1, inhibitor:DMSO",−0.41 log 2
same,L/H ratio of acetylated peptide SGVGNVFIK(ac)NLDK (SEQ ID NO: 63),"PABPC4 [104], log 2 scale, drug vs DMSO",0.00
same,L/H ratio of acetylated peptide […](ac)IFR (SEQ ID NO: 66),"PDIA3 [104], log 2 scale, drug vs DMSO",0.00
same,L/H ratio of acetylated peptide PSHLTNK(ac)FEDK (SEQ ID NO: 65),"PDIA3 [214], log 2 scale, drug vs DMSO",0.00
same,L/H ratio of acetylated peptide GEK(ac)FVMQEEFSR (SEQ ID NO: 64),"PDIA3 [335], log 2 scale, drug vs DMSO",0.00
same,L/H ratio of acetylated peptide SLLGK(ac)DVLFLK (SEQ ID NO: 67),"PGK1 [91], log 2 scale, drug vs DMSO",0.00
same,"light to heavy ratio (L/H ratio) of acetylated peptide, log 2 scale","PLISVYSEK(ac)GESSGK (SEQ ID NO: 247), 60S ribosomal protein L4 [14], RPL4",−0.54
same,L/H ratio of acetylated peptide SIYGEK(ac)FEDENFILK (SEQ ID NO: 68),"PPIA [82], log 2 scale, drug vs DMSO",0.00
same,L/H ratio of acetylated peptide VIFGLFGK(ac)TVPK (SEQ ID NO: 70),"PPIB [67], log 2 scale, drug vs DMSO",0.00
same,L/H ratio of acetylated peptide TVPK(ac)[…] (SEQ ID NO: 69),"PPIB [71], log 2 scale, drug vs DMSO",0.00
same,L/H ratio of acetylated peptide VIK(ac)[…] (SEQ ID NO: 71),"PPIB [98], log 2 scale, drug vs DMSO",0.00
same,L/H ratio of acetylated peptide IYGFYDECK(ac)R (SEQ ID NO: 72),"PPP1CC [141], log 2 scale, drug vs DMSO",0.00
same,light to heavy ratio (L/H ratio) of acetylated peptide TAWLDGK(ac)HVVFGK (SEQ ID NO: 592),"Peptidyl-prolyl cis-trans isomerase B [165], gene PPIB, inhibitor:DMSO",0.44 log 2
same,light to heavy ratio (L/H ratio) of acetylated peptide FPDENFK(ac)LK (SEQ ID NO: 347),"Peptidyl-prolyl cis-trans isomerase C [123], PPIC, drug:DMSO",0.00 log 2
same,light to heavy ratio (L/H ratio) of acetylated peptide HVVFGK(ac)VK (SEQ ID NO: 576),"Peptidylprolyl isomerase A (Cyclophilin A) (PPIA) pseudogene [141], gene PPIAP26, inhibitor:DMSO",0.42 log 2
same,light to heavy ratio (L/H ratio) of acetylated peptide LAK(ac)YFFNK (SEQ ID NO: 604),"Periodic tryptophan protein 2 homolog [279], gene PWP2, inhibitor:DMSO",0.46 log 2
same,light to heavy ratio (L/H ratio) of acetylated peptide AAWEHMK(ac)K (SEQ ID NO: 551),"Peroxisomal multifunctional enzyme type 2 [139], gene HSD17B4, inhibitor:DMSO",0.39 log 2
same,light to heavy ratio (L/H ratio) of acetylated peptide FAK(ac)[…] (SEQ ID NO: 557),"Peroxisomal multifunctional enzyme type 2 [565], gene HSD17B4, inhibitor:DMSO",0.40 log 2
same,light to heavy ratio (L/H ratio) of acetylated peptide […](ac)EALKK (SEQ ID NO: 619),"Poly [ADP-ribose] polymerase 1 [192], gene PARP1, inhibitor:DMSO",0.48 log 2
same,light to heavy ratio (L/H ratio) of acetylated peptide […](ac)DELKK (SEQ ID NO: 346),"Poly [ADP-ribose] polymerase 1 [249], PARP1, drug:DMSO",0.00 log 2
same,light to heavy ratio (L/H ratio) of acetylated peptide […](ac)NVLK (SEQ ID NO: 527),"Pre-mRNA-processing-splicing factor 8 [2108], gene PRPF8, inhibitor:DMSO",−0.44 log 2
same,light to heavy ratio (L/H ratio) of acetylated peptide ALK(ac)YLVMDEADR (SEQ ID NO: 513),"Probable ATP-dependent RNA helicase DDX47 [169], gene DDX47, inhibitor:DMSO",−0.58 log 2
same,light to heavy ratio (L/H ratio) of acetylated peptide (ac)AAK(ac)VFESIGK (SEQ ID NO: 277),"Prohibitin [4], PHB, drug:DMSO",0.54 log 2
